These results are taken from US20170027896A1, “METHODS AND COMPOSITIONS FOR THE TREATMENT OF VASCULAR MALFORMATION” (IFOM - FONDAZIONE ISTITUTO FIRC DI ONCOLOGIA MOLECOLARE, priority 2014, published 2017).

“Also recorded” adds a separate entry of the source.

One experiment relates to cyclooxygenase. Conditions: reported; cited from earlier work.
In experiment [1] the test system is CCM3-knockout brain endothelial cells in primary culture. In words: rtPCR of b-catenin target genes in primary cultures of CCM3-knockout brain endothelial cells. Conditions: 48 h. Type of experiment: cell-based, mouse. On the set-up: dose or concentration left out as unconfirmed. The text has this:
Endothelial cells from the CCM3-flox/flox mice (8-10 weeks old) were isolated from the brain as previously described^13. Recombination of the floxed CCM3 gene was induced by treating the cells at culture day 1 with the AdenoCre viral vector, as previously described^59. The control endothelial cells were an aliquot of the same endothelial cell preparation treated with AdenoGFP, instead of AdenoCre. The cells were then maintained in culture for up to a further 7 days before analysis, as described in the main text. Drug treatments were for 48 h before the processing of the cells. Drugs were added to confluent cells for 48 h before the indicated assays. The final concentrations used were: […] (all from Sigma-Aldrich). As all of these were dissolved in DMSO, control treatment (vehicle) was 0.1% DMSO final concentration, as for drug treatment. RNA extraction was performed with RNeasy kits (74106; Promega). The RNA (1 μg) was reverse transcribed with random hexamers (High Capacity cDNA Archive kits; Applied Biosystems). […] For each sample, the expression levels were determined with the comparative threshold cycle (Ct) method, and normalized to the housekeeping genes encoding 18S and glyceraldehyde-3-phosphate dehydrogenase (GAPDH). […]

Experiment [2] has as its system vascular malformations in the retina of CCM3-ECKO mice. In words: Retina vascular lesions and vein diameter in CCM3-ECKO mice. Type of experiment: in vivo, mouse. The text has this:
The CCM3-flox/flox mice were generated at TaconicArtemis (Koeln, Germany). Two P-lox sequences were inserted that flank exons 4 and 5 of the murine CCM3 gene, to produce a loss-of-function mutation after excision by Ore recombinase. These CCM3-flox/flox mice were bred with Cdh5(PAC)-CreERT2 mice (Wang et al, 2010) for tamoxifen-inducible endothelial-cell-specific expression of Ore-recombinase and CCM3 gene recombination. The CCM3-flox/flox-Cdh5(PAC)-CreERT2 mice were further bred with BAT-gal mice (Maretto et al, 2003) to monitor the activation of b-catenin transcription signaling, and with Rosa 26-Enhanced […] Fluorescent Protein (EYFP) (Rosa26EYFP) mice (Srinivas et al, 2001) to monitor the expression of Ore-recombinase through the expression of EYFP. Tamoxifen (Sigma) was dissolved in corn oil and 10% ethanol (at 10 mg/ml), and then diluted 1:5 in corn oil before single intragastric administration to dpn 1-2 pups (35 mg/kg body weight), as described in^14. The control (wild-type) mice included CCM3-flox/flox-Cdh5(PAC)-CreERT2-BAT-gal mice treated with the vehicle used to dissolve the tamoxifen (corn oil plus 2% ethanol), and CCM3^+/+-Cdh5(PAC)-CreERT2-BAT-gal mice treated with tamoxifen.
Brains and eyes from mice pups were fixed in 3% paraformaldehyde immediately after dissection, and this fixing was continued overnight at 4° C. […]

The test system of experiment [3] is co-immunoprecipitation complex of b-catenin and VE-cadherin. In words: Co-immunoprecipitation and Western blotting of b-catenin and VE-cadherin in CCM3-knockout endothelial line. The format is cell-based, mouse. Conditions: association reduced by 35% in vehicle-KO. The procedure:
Drugs were added to confluent cells for 48 h before the indicated assays. The final concentrations used were: […] (all from Sigma-Aldrich). As all of these were dissolved in DMSO, control treatment (vehicle) was 0.1% DMSO final concentration, as for drug treatment. Standard procedures were used to extract and analyze the protein content by Western blotting and immunoprecipitation^46. Nuclear fractionation was as described previously^62.
(In general: Immunoblotting shows a protein as a band on a membrane.)

As to `CSc1ccc(/C=C2/C(C)=C(CC(=O)O)c3cc(F)ccc32)cc1` [sulindac sulfide, (Z)-5-Fluoro-2-methyl-1-[4-(methylthio)benzylidene]indene-3-acetic acid], in the experiment with cyclooxygenase, the anti-cyclooxygenase activity result is “inhibits”. The “expression of endogenous b-catenin target genes (Klf4, Ly6a, S100a4, Id1; rtPCR)” value in experiment [1] is “effectively inhibited”. Besides, the “vascular malformations in the retina” value in experiment [2] (CCM3-ECKO mice, dpn 9) is given as “inhibited; also recorded: partially normalized”. For the same compound, in experiment [2] (CCM3-ECKO, 30 measurements in 14 retinas, vehicle-ECKO 89.5±7.1 mm), the diameter of the most internal tract of the retinal veins (mean±SD) came out at 35 ± 7.8 µm. Besides, the “association between b-catenin and VE-cadherin (b-catenin/VE-cadherin ratio)” value in experiment [3] was “restored to the level observed in the wild-type cells”.
